From patent publication US6203976A, “Methods of preparing compositions comprising chemicals capable of transcriptional modulation” (OSI Pharmaceuticals, Inc., priority 1994, dated 2001)
Read-outs that look alike come from different tables or passages of the source. Starred links: 1 amine or outer side, 2 acyl side, 3 side chain; linkers in the order of their positions; H or OH if unused. Positions of bridges follow the written chain, without caps; N, C: chain ends. Non-standard residues stand in square brackets, D forms with d. Residues, ends and D or L forms follow the SMILES beside them. Chains are numbered I, II in the order given. Actinocin(9to1) = Cc1c2oc3c(C)ccc(C(=O)[*:1])c3nc-2c(C(=O)[*:2])c(N)c1=O; NMeV = CN[C@H](C(=O)O)C(C)C; Sar = CNCC(=O)O

Tests used:
[1] = test system: human growth hormone (532) promoter; assay: High-throughput luciferase reporter assay, human Growth Hormone promoter (Screen III); type: cell-based; settings: 532 cells, 6 hours; for FOLD INHIBITION RELATIVE TO SOLVENT CONTROL, hGH: Screen III inhibitors; for FOLD INDUCTION RELATIVE TO SOLVENT CONTROL, hGH: Screen III activators
[2] = test system: MMTV (M10) promoter; assay: High-throughput luciferase reporter assay, MMTV promoter (Screen III); type: cell-based, mouse; settings: M10 cells, 6 hours; for FOLD INHIBITION RELATIVE TO SOLVENT CONTROL, MMTV: Screen III inhibitors; for FOLD INDUCTION RELATIVE TO SOLVENT CONTROL, MMTV: Screen III activators
[3] = test system: human G-CSF (G21) promoter; settings: Screen III inhibitors; G21 cells; 6 hours
[4] = test system: CMV reporter (CM1 cells); assay: Luciferase signal half-life after Actinomycin D, CM1 cells; type: cell-based, human; settings: Actinomycin D 25 microg/ml
Excerpt: Hep3B hepatocellular carcinoma cells were transfected by electroporation with 75 micrograms of pCM106 which had been linearized by a single ScaI cut within the vector backbone. Neomycin resistant colonies were isolated and tested for luciferase activity. Luciferase positive, neomycin resistant clones were subjected to Southern blot analysis (see below). The best clone, producing the most luciferase activity from a single, correctly integrated vector was selected for use as the CMV reporter cell line in the high throughput screen (this clone was designated CM1).
(§1) When screening for inhibitors rather than inducers of transcription, the half-life of the reporter molecule becomes a crucial parameter in determining the minimal incubation time that would be necessary to allow enough decay of reporter molecules so that the inhibition of their synthesis became visible. […] This experiment measured the combined half-life of luciferase mRNA and of the luciferase protein and compares the rate of signal decay of the CMV reporter to three other well characterized genes; H-ras, K-ras and c-erbB2.
(§2) Cells derived from clones CM1 (CMV), K2 (K-ras), H21 (H-ras) and N2 (c-erbB2) were seeded into 96-well microtiter plates and incubated overnight. […] At the times indicated in FIG. 22, cells were washed with PBS and luciferase activity of Actinomycin-treated cells determined as described in Materials and Methods. […]

[5] = test system: K-ras reporter (K2 cells); assay: Luciferase signal half-life after Actinomycin D, K2 cells; type: cell-based, human; settings: Actinomycin D 25 microg/ml
Excerpt: (§3) 75 micrograms of the pKRAS106 plasmid was linearized by a single restriction endonuclease cleavage within the vector backbone and electroporated into SW480 human colon carcinoma cells. Neomycin resistant clones were isolated and tested for luciferase activity. Clones testing positive for luciferase production were subjected to Southern blot analysis (see below). The best clone (producing the highest signal and carrying a single intact copy of the transfected DNA) was utilized for high throughput screening (designated clone K2).
as §1, §2

[6] = test system: H-ras reporter (H21 cells); assay: Luciferase signal half-life after Actinomycin D, H21 cells; type: cell-based; settings: Actinomycin D 25 microg/ml
Protocol: When screening for inhibitors rather than inducers of transcription, the half-life of the reporter molecule becomes a crucial parameter in determining the minimal incubation time that would be necessary to allow enough decay of reporter molecules so that the inhibition of their synthesis became visible. The CMV reporter cell line was therefore tested for the time dependency of luciferase activity after treatment of the cells with Actinomycin D, an inhibitor of transcription. This experiment measured the combined half-life of luciferase mRNA and of the luciferase protein and compares the rate of signal decay of the CMV reporter to three other well characterized genes; H-ras, K-ras and c-erbB2.
Cells derived from clones CM1 (CMV), K2 (K-ras), H21 (H-ras) and N2 (c-erbB2) were seeded into 96-well microtiter plates and incubated overnight. At time 0, Actinomycin D (25 microg/ml) was added. At the times indicated in FIG. 22, cells were washed with PBS and luciferase activity of Actinomycin-treated cells determined as described in Materials and Methods. The signal from the treated cells was compared to the luciferase activity of untreated controls.

[7] = test system: neu (c-erbB2) reporter (N2 cells); assay: Luciferase signal half-life after Actinomycin D, N2 cells; type: cell-based, human; settings: Actinomycin D 25 microg/ml
Excerpt: as §3, with “pNEU106” for “pKRAS106”, “HTB30” for “SW480”, “breast” for “colon”, “N2).” for “K2).”
as §1, §2

[8] = test system: human G-CSF (G21) promoter; assay: High-throughput luciferase reporter assay, G-CSF promoter (Screen III); settings: G21 cells, 6 hours; for FOLD INHIBITION RELATIVE TO SOLVENT CONTROL, GCSF: Screen III inhibitors; for FOLD INDUCTION RELATIVE TO SOLVENT CONTROL, GCSF: Screen III activators

SMILES: CC1(C)[C@H]2CC[C@]1(C)C(=O)C2 [compound 1720]
- FOLD INHIBITION RELATIVE TO SOLVENT CONTROL, hGH [1]: 4.76 fold
- FOLD INHIBITION RELATIVE TO SOLVENT CONTROL, MMTV [2]: 0.66 fold
- FOLD INHIBITION RELATIVE TO SOLVENT CONTROL, GCSF [3]: 0.65 fold

SMILES: Nc1nc2c(nc(Br)n2[C@@H]2O[C@H](CO)[C@@H](O)[C@H]2O)c(=O)[nH]1 [compound 2036]
- FOLD INHIBITION RELATIVE TO SOLVENT CONTROL, hGH [1]: 4.34 fold
- FOLD INHIBITION RELATIVE TO SOLVENT CONTROL, MMTV [2]: 0.81 fold
- FOLD INHIBITION RELATIVE TO SOLVENT CONTROL, GCSF [3]: 0.58 fold

SMILES: Cc1n[nH]c(C)c1Br [compound 2009]
- FOLD INHIBITION RELATIVE TO SOLVENT CONTROL, hGH [1]: 0.57 fold
- FOLD INHIBITION RELATIVE TO SOLVENT CONTROL, MMTV [2]: 0.64 fold
- FOLD INHIBITION RELATIVE TO SOLVENT CONTROL, GCSF [3]: 3.70 fold

SMILES: CCCCCCCCCCCCCCCCBr [compound 2037]
- FOLD INHIBITION RELATIVE TO SOLVENT CONTROL, hGH [1]: 4.00 fold
- FOLD INHIBITION RELATIVE TO SOLVENT CONTROL, MMTV [2]: 0.50 fold
- FOLD INHIBITION RELATIVE TO SOLVENT CONTROL, GCSF [3]: 0.51 fold

SMILES: O=S(=O)(O)c1ccc2c(N=Nc3ccc(S(=O)(=O)O)c4ccccc34)c(O)c(S(=O)(=O)O)cc2c1 [compound 512]
- FOLD INHIBITION RELATIVE TO SOLVENT CONTROL, hGH [1]: 5.26 fold
- FOLD INHIBITION RELATIVE TO SOLVENT CONTROL, MMTV [2]: 0.68 fold
- FOLD INHIBITION RELATIVE TO SOLVENT CONTROL, GCSF [3]: 0.81 fold

SMILES: Cc1c2oc3c(C)ccc(C(=O)N[C@@H]4C(=O)N[C@H](C(C)C)C(=O)N5CCC[C@H]5C(=O)N(C)CC(=O)N(C)[C@@H](C(C)C)C(=O)O[C@@H]4C)c3nc-2c(C(=O)N[C@@H]2C(=O)N[C@H](C(C)C)C(=O)N3CCC[C@H]3C(=O)N(C)CC(=O)N(C)[C@@H](C(C)C)C(=O)O[C@@H]2C)c(N)c1=O [Actinomycin D] (I: T[dV]P[Sar][NMeV] / II: T[dV]P[Sar][NMeV]; ester I:1-I:C, II:1-II:C; linker I:N-II:N via Actinocin(9to1))
- Signal Halflife [4]: 6.5 h
- Signal Halflife [5]: 6.5 h
- Signal Halflife [6]: 10 h
- Signal Halflife [7]: 3 h

SMILES: Nc1c(Br)cc([N+](=O)[O-])cc1[N+](=O)[O-] [compound 2010]
- FOLD INHIBITION RELATIVE TO SOLVENT CONTROL, hGH [1]: 0.63 fold
- FOLD INHIBITION RELATIVE TO SOLVENT CONTROL, MMTV [2]: 3.57 fold
- FOLD INHIBITION RELATIVE TO SOLVENT CONTROL, GCSF [8]: 0.80 fold

SMILES: CC1(C)[C@H]2CC[C@]1(C)[C@H](O)C2 [compound 1635]
- FOLD INHIBITION RELATIVE TO SOLVENT CONTROL, hGH [1]: 9.09 fold
- FOLD INHIBITION RELATIVE TO SOLVENT CONTROL, MMTV [2]: 0.99 fold
- FOLD INHIBITION RELATIVE TO SOLVENT CONTROL, GCSF [3]: 0.71 fold

SMILES: CON(C)C(=O)Nc1ccc(Cl)cc1 [compound 552]
- FOLD INDUCTION RELATIVE TO SOLVENT CONTROL, hGH [1]: 5.31 fold
- FOLD INDUCTION RELATIVE TO SOLVENT CONTROL, MMTV [2]: 0.86 fold
- FOLD INDUCTION RELATIVE TO SOLVENT CONTROL, GCSF [8]: 0.81 fold

SMILES: O=S(=O)(O)c1ccc(-c2ccnc(-c3nnc(-c4ccc(S(=O)(=O)O)cc4)c(-c4ccc(S(=O)(=O)O)cc4)n3)c2)cc1 [compound 1648]
- FOLD INHIBITION RELATIVE TO SOLVENT CONTROL, hGH [1]: 7.69 fold
- FOLD INHIBITION RELATIVE TO SOLVENT CONTROL, MMTV [2]: 1.00 fold
- FOLD INHIBITION RELATIVE TO SOLVENT CONTROL, GCSF [8]: 0.86 fold

SMILES: CN(C)C(=S)SCC#N [compound 1793]
- FOLD INDUCTION RELATIVE TO SOLVENT CONTROL, hGH [1]: 0.52 fold
- FOLD INDUCTION RELATIVE TO SOLVENT CONTROL, MMTV [2]: 1.21 fold
- FOLD INDUCTION RELATIVE TO SOLVENT CONTROL, GCSF [8]: 9.50 fold

SMILES: Cc1cc(=O)oc2c(CN(CC(=O)O)CC(=O)O)c(O)ccc12 [compound 1712]
- FOLD INHIBITION RELATIVE TO SOLVENT CONTROL, hGH [1]: 8.33 fold
- FOLD INHIBITION RELATIVE TO SOLVENT CONTROL, MMTV [2]: 0.94 fold
- FOLD INHIBITION RELATIVE TO SOLVENT CONTROL, GCSF [8]: 0.74 fold

SMILES: NC1=NCCS1 [compound 1552]
- FOLD INDUCTION RELATIVE TO SOLVENT CONTROL, hGH [1]: 7.26 fold
- FOLD INDUCTION RELATIVE TO SOLVENT CONTROL, MMTV [2]: 0.52 fold
- FOLD INDUCTION RELATIVE TO SOLVENT CONTROL, GCSF [8]: 1.23 fold
